Source: ChEMBL document CHEMBL6153153, “Use of Aldehyde-Alkyne-Amine Couplings to Generate Medicinal Chemistry-Relevant Linkers” (ACS Med Chem Lett, 2025)
Activity calls are given as the source filed them. No cut-off for these calls is given here.

Experiments:
[1] = Solubility of compound; type: physicochemical
[2] = Solubility of the compound in saline; type: physicochemical; settings: buffer
[3] = Solubility of compound in 5 percent PBS buffer; type: physicochemical
HEK293 [4] = assay: PROTAC activity at E3 ligase/long BRD4 (unknown origin) expressed in HEK293 cells assessed as induction of BRD4 degradation at 300 to 1000 nM incubated for 18 hrs in presence of MLN4924 by Western blot analysis; type: cell-based; settings: Homo sapiens, dose 300-1000 nM
HEK293 [5] = assay: PROTAC activity at E3 ligase/short BRD4 (unknown origin) expressed in HEK293 cells assessed as induction of BRD4 degradation at 300 to 1000 nM incubated for 18 hrs in presence of MG132 by Western blot analysis; type: cell-based; settings: Homo sapiens, dose 300-1000 nM
HEK293 [6] = assay: PROTAC activity at E3 ligase/long BRD4 (unknown origin) expressed in HEK293 cells assessed as induction of BRD4 degradation at 300 to 1000 nM incubated for 18 hrs in presence of MG132 by Western blot analysis; type: cell-based; settings: Homo sapiens, dose 300-1000 nM
HEK293 [7] = assay: PROTAC activity at E3 ligase/short BRD4 (unknown origin) expressed in HEK293 cells assessed as induction of BRD4 degradation at 300 to 1000 nM incubated for 18 hrs in presence of thalidomide by Western blot analysis; type: cell-based; settings: Homo sapiens, dose 300-1000 nM
HEK293 [8] = assay: PROTAC activity at E3 ligase/short BRD4 (unknown origin) expressed in HEK293 cells assessed as induction of BRD4 degradation at 300 to 1000 nM incubated for 18 hrs in presence of MLN4924 by Western blot analysis; type: cell-based; settings: Homo sapiens, dose 300-1000 nM
HEK293 [9] = assay: PROTAC activity at E3 ligase/short BRD4 (unknown origin) expressed in HEK293 cells assessed as induction of BRD4 degradation at 300 to 1000 nM incubated for 18 hrs by Western blot analysis; type: cell-based; settings: Homo sapiens, dose 300-1000 nM
HEK293 [10] = assay: PROTAC activity at E3 ligase/long BRD4 (unknown origin) expressed in HEK293 cells assessed as induction of BRD4 degradation at 300 to 1000 nM incubated for 18 hrs by Western blot analysis; type: cell-based; settings: Homo sapiens, dose 300-1000 nM
HEK293 [11] = assay: PROTAC activity at E3 ligase/long BRD4 (unknown origin) expressed in HEK293 cells assessed as induction of BRD4 degradation at 300 to 1000 nM incubated for 18 hrs in presence of thalidomide by Western blot analysis; type: cell-based; settings: Homo sapiens, dose 300-1000 nM

Structure (SMILES) | solubility [1] | solubility [2] | solubility [3] | Activity (HEK293 [4]) | Activity (HEK293 [5]) | Activity (HEK293 [6]) | Activity (HEK293 [7]) | Activity (HEK293 [8]) | Activity (HEK293 [9]) | Activity (HEK293 [10]) | Activity (HEK293 [11])
Cc1ncsc1-c1ccc(CNC(=O)[C@@H]2C[C@@H](O)CN2C(=O)[C@@H](NC(=O)CCCCC(=O)NC2CCN(C(C#CCCSc3ccc(C(=O)NCCNC(=O)C[C@@H]4N=C(c5ccc(Cl)cc5)c5c(sc(C)c5C)-n5c(C)nnc54)cc3)C3CCOCC3)CC2)C(C)(C)C)cc1 (some centres undefined) | Insoluble |  |  |  |  |  |  |  |  |  | 
Cc1sc2c(c1C)C(c1ccc(Cl)cc1)=N[C@@H](CC(=O)NCC#CC(C1CCN(C(=O)COc3cccc4c3C(=O)N(C3CCC(=O)NC3=O)C4=O)CC1)N1CCN(C(=O)COc3cccc4c3C(=O)N(C3CCC(=O)NC3=O)C4=O)CC1)c1nnc(C)n1-2 (some centres undefined) | Insoluble | Insoluble | Insoluble |  |  |  |  |  |  |  | 
Cc1sc2c(c1C)C(c1ccc(Cl)cc1)=N[C@@H](CC(=O)NCCNC(=O)c1ccc(SCCC#CC(C3CCOCC3)N3CCC(NC(=O)COc4cccc5c4C(=O)N(C4CCC(=O)NC4=O)C5=O)CC3)cc1)c1nnc(C)n1-2 (some centres undefined) |  | Insoluble | Insoluble | inactive | inactive | inactive | inactive | inactive | Active | Active | inactive
